These molecules were tested against T1, recombinant human GST-Syk (Homo sapiens, UniProt P43405) (assay: Homogeneous Time-Resolved Fluorescence (HTRF) assay for the recombinant human Syk enzyme). Settings: recombinant human GST-Syk 5 pM, ATP 25 μM, 45 min at rt, read-out: rhSyk.
T1 construct: purchased Carna Biosciences 08-176
Type: biochemical
Procedure: Homogeneous Time-Resolved Fluorescence (HTRF) Assay for the Recombinant Human Syk Enzyme
A recombinant GST-hSyk fusion protein was used to measure potency of compounds to inhibit human Syk activity. The recombinant human GST-Syk (Carna Biosciences #08-176) (5 pM nominal concentration) was incubated with various concentrations of the inhibitor diluted in DMSO (0.1% final concentration) for 10 minutes at rt in 15 mM Tris-HCl (pH 7.5), 0.01% tween 20, 2 mM DTT in 384 well plate format. To initiate the reaction the biotinylated substrate peptide (250 nM final concentration) that contains the phosphorylation site for Syk was added with magnesium (5 mM final concentration) and ATP (25 μM final concentration). Final volume of the reaction was 10 μL. Phosphorylation of the peptide was allowed to proceed for 45′ at rt. To quench the reaction and detect the phosphorylated product, 2 nM of a Europium-anti-phosphotyrosine antibody (Perkin Elmer #AD0161) and 70 nM SA-APC (Perkin-Elmer #CR130-100) were added together in 15 mM Tris pH 7.5, 40 mM EDTA, 0.01% tween 20. Final volume of the quenching solution was 10 μL. The resulting HTRF signal was measured after 30 minutes on a EnVision (Perkin-Elmer) reader using a time-resolved fluorescence protocol. IC50 was determined following 10-dose titration (10 μM to 0.508 nM) and four parameter logistic curve fitting using an assay data analyzer.
`Cc1cc(Nc2cc(C(F)(F)F)ccn2)nc(-c2cnc(C3(O)CCCc4cc(C(=O)O)c(Br)cc43)s2)c1` (single isomer, unassigned) [Example 1A, 3-Bromo-5-hydroxy-5-[5-(4-methyl-6-{[4-(trifluoromethyl)pyridin-2-yl]amino}pyridin-2-yl)-1,3-thiazol-2-yl]-5,6,7,8-tetrahydronaphthalene-2-carboxylic acid] gave an IC50 of 1.51 nM.
`Cc1cc(Nc2cc(C(F)(F)F)ccn2)nc(-c2cnc(C3(O)CCCc4cc(C(=O)O)c(Br)cc43)s2)c1` (single isomer, unassigned) [Example 1B, 3-Bromo-5-hydroxy-5-[5-(4-methyl-6-{[4-(trifluoromethyl)pyridin-2-yl]amino}pyridin-2-yl)-1,3-thiazol-2-yl]-5,6,7,8-tetrahydronaphthalene-2-carboxylic acid] gave an IC50 of 0.51 nM.
With `Cc1cc(Nc2cc(C(F)(F)F)ccn2)nc(-c2cnc(C3(O)CCc4cc(C(=O)O)c(F)cc43)s2)c1` (single isomer, unassigned) [Example 1C, (R or S)-6-fluoro-1-hydroxy-1-[5-(4-methyl-6-{[4-(trifluoromethyl)pyridin-2-yl]amino}pyridin-2-yl)-1,3-thiazol-2-yl]-2,3-dihydro-1H-indene-5-carboxylic acid] the IC50 was 0.39 nM.
`Cc1cc(Nc2cc(C(F)(F)F)ccn2)nc(-c2cnc(C3(O)CCc4cc(C(=O)O)c(F)cc43)s2)c1` (single isomer, unassigned) [Example 1D, (R or S)-6-fluoro-1-hydroxy-1-[5-(4-methyl-6-{[4-(trifluoromethyl)pyridin-2-yl]amino}pyridin-2-yl)-1,3-thiazol-2-yl]-2,3-dihydro-1H-indene-5-carboxylic acid] showed an IC50 of 0.67 nM.
`Cc1cc(Nc2cc(C(F)(F)F)ccn2)nc(-c2cnc(C3(O)CCCc4cc(C(=O)O)c(Cl)cc43)s2)c1` (single isomer, unassigned) [Example 1E, (R or S)-3-chloro-5-hydroxy-5-[5-(4-methyl-6-{[4-(trifluoromethyl)pyridin-2-yl]amino}pyridin-2-yl)-1,3-thiazol-2-yl]-5,6,7,8-tetrahydronaphthalene-2-carboxylic acid] showed an IC50 of 1.16 nM.
With `Cc1cc(Nc2cc(C(F)(F)F)ccn2)nc(-c2cnc(C3(O)CCCc4cc(C(=O)O)c(Cl)cc43)s2)c1` (single isomer, unassigned) [Example 1F, (R or S)-3-chloro-5-hydroxy-5-[5-(4-methyl-6-{[4-(trifluoromethyl)pyridin-2-yl]amino}pyridin-2-yl)-1,3-thiazol-2-yl]-5,6,7,8-tetrahydronaphthalene-2-carboxylic acid] the IC50 was 0.17 nM.
For `Cc1cc(Nc2cc(C3CC3)ccn2)nc(-c2cnc(C3(O)CCCc4cc(C(=O)O)c(F)cc43)s2)c1` (single isomer, unassigned) [Example 1G, (R or S)-5-(5-{6-[(4-cyclopropylpyridin-2-yl)amino]-4-methylpyridin-2-yl}-1,3-thiazol-2-yl)-3-fluoro-5-hydroxy-5,6,7,8-tetrahydronaphthalene-2-carboxylic acid], the IC50 was 4.3 nM.
Work on `Cc1cc(Nc2cc(C3CC3)ccn2)nc(-c2cnc(C3(O)CCCc4cc(C(=O)O)c(F)cc43)s2)c1` (single isomer, unassigned) [Example 1H, (R or S)-5-(5-{6-[(4-cyclopropylpyridin-2-yl)amino]-4-methylpyridin-2-yl}-1,3-thiazol-2-yl)-3-fluoro-5-hydroxy-5,6,7,8-tetrahydronaphthalene-2-carboxylic acid] yielded an IC50 of 0.002 nM.
For `Cc1cc(Nc2cc(C(F)(F)F)ccn2)nc(-c2cnc(C3(O)CCCc4c3ccc(C(=O)O)c4F)s2)c1` (single isomer, unassigned) [Example 1J, (R or S)-1-fluoro-5-hydroxy-5-[5-(4-methyl-6-{[4-(trifluoromethyl)pyridin-2-yl]amino}pyridin-2-yl)-1,3-thiazol-2-yl]-5,6,7,8-tetrahydronaphthalene-2-carboxylic acid], the IC50 was 0.04 nM.
In the case of `Cc1cc(Nc2cc(C(F)(F)F)ccn2)nc(-c2cnc(C3(O)CCCc4c3ccc(C(=O)O)c4F)s2)c1` (single isomer, unassigned) [Example 1i, (R or S)-1-fluoro-5-hydroxy-5-[5-(4-methyl-6-{[4-(trifluoromethyl)pyridin-2-yl]amino}pyridin-2-yl)-1,3-thiazol-2-yl]-5,6,7,8-tetrahydronaphthalene-2-carboxylic acid], the IC50 is reported as 2.19 nM.
For `Cc1cc(Nc2cc(C(C)F)ccn2)nc(-c2cnc([C@@]3(O)CCc4cc(C(=O)O)ccc43)s2)c1` (single isomer, unassigned) [Example 2J, (1R)-1-[5-(6-{[4-((R or S)-1-fluoroethyl)pyridin-2-yl]amino}-4-methylpyridin-2-yl)-1,3-thiazol-2-yl]-1-hydroxy-2,3-dihydro-1H-indene-5-carboxylic acid], the IC50 was 0.04 nM.
`Cc1cc(Nc2cc(C(C)F)ccn2)nc(-c2cnc([C@@]3(O)CCc4cc(C(=O)O)ccc43)s2)c1` (single isomer, unassigned) [Example 2K, (1R)-1-[5-(6-{[4-((R or S)-1-fluoroethyl)pyridin-2-yl]amino}-4-methylpyridin-2-yl)-1,3-thiazol-2-yl]-1-hydroxy-2,3-dihydro-1H-indene-5-carboxylic acid] gave an IC50 of 0.05 nM.
With `Cc1cc(Nc2cc(-c3cn[nH]c3)ccn2)nc(-c2cnc(C3(O)CCCc4cc(C(=O)O)ccc43)s2)c1` (single isomer, unassigned) [Example 4B-1, 5-Hydroxy-5-[5-(4-methyl-6-{[4-(1H-pyrazol-4-yl)pyridin-2-yl]amino}pyridin-2-yl)-1,3-thiazol-2-yl]-5,6,7,8-tetrahydronaphthalene-2-carboxylic acid] the IC50 was 1.2 nM.
For `Cc1cc(Nc2cc(-c3cn[nH]c3)ccn2)nc(-c2cnc(C3(O)CCCc4cc(C(=O)O)ccc43)s2)c1` (single isomer, unassigned) [Example 4B-2, 5-Hydroxy-5-[5-(4-methyl-6-{[4-(1H-pyrazol-4-yl)pyridin-2-yl]amino}pyridin-2-yl)-1,3-thiazol-2-yl]-5,6,7,8-tetrahydronaphthalene-2-carboxylic acid], the IC50 was 0.8 nM.
`Cc1cc(Nc2cc(-c3cn[nH]c3)ccn2)nc(-c2cnc(C3(O)CCCc4cc(C(=O)N(C)C)ccc43)s2)c1` (single isomer, unassigned) [Example 4C-1, 5-Hydroxy-N,N-dimethyl-5-[5-(4-methyl-6-{[4-(1H-pyrazol-4-yl)pyridin-2-yl]amino}pyridin-2-yl)-1,3-thiazol-2-yl]-5,6,7,8-tetrahydronaphthalene-2-carboxamide] showed an IC50 of 1.04 nM.
With `Cc1cc(Nc2cc(-c3cn[nH]c3)ccn2)nc(-c2cnc(C3(O)CCCc4cc(C(=O)N(C)C)ccc43)s2)c1` (single isomer, unassigned) [Example 4C-2, 5-Hydroxy-N,N-dimethyl-5-[5-(4-methyl-6-{[4-(1H-pyrazol-4-yl)pyridin-2-yl]amino}pyridin-2-yl)-1,3-thiazol-2-yl]-5,6,7,8-tetrahydronaphthalene-2-carboxamide] the IC50 was 757 nM.
With `Cc1cc(Nc2cc(C(F)(F)F)ccn2)nc(-c2cnc([C@@]3(O)CCCc4c3ccc(C(=O)O)c4O)s2)c1` (single isomer, unassigned) [Example 7A, 1,5-Dihydroxy-5-[5-(4-methyl-6-{[4-(trifluoromethyl)pyridin-2-yl]amino}pyridin-2-yl)-1,3-thiazol-2-yl]-5,6,7,8-tetrahydronaphthalene-2-carboxylic acid] the IC50 was 4.61 nM.
Work on `Cc1cc(Nc2cc(C(F)(F)F)ccn2)nc(-c2cnc([C@@]3(O)CCCc4c3ccc(C(=O)O)c4O)s2)c1` (single isomer, unassigned) [Example 7B, 1,5-Dihydroxy-5-[5-(4-methyl-6-{[4-(trifluoromethyl)pyridin-2-yl]amino}pyridin-2-yl)-1,3-thiazol-2-yl]-5,6,7,8-tetrahydronaphthalene-2-carboxylic acid] yielded an IC50 of 0.24 nM.
In the case of `Cc1cc(Nc2cc(C(C)F)ccn2)nc(-c2cnc(C3(O)CCCc4cc(C(=O)O)ccc43)s2)c1` (single isomer, unassigned) [Example 8A, 5-(5-(6-((4-(1-Fluoroethyl)pyridin-2-yl)amino)-4-methylpyridin-2-yl)thiazol-2-yl)-5-hydroxy-5,6,7,8-tetrahydronaphthalene-2-carboxylic acid], the IC50 is reported as 2 nM.
Molecule `Cc1cc(Nc2cc(C(C)F)ccn2)nc(-c2cnc(C3(O)CCCc4cc(C(=O)O)ccc43)s2)c1` (single isomer, unassigned) [Example 8B, 5-(5-(6-((4-(1-Fluoroethyl)pyridin-2-yl)amino)-4-methylpyridin-2-yl)thiazol-2-yl)-5-hydroxy-5,6,7,8-tetrahydronaphthalene-2-carboxylic acid] has an IC50 of 0.1 nM.
`Cc1cc(Nc2cc(C(C)F)ccn2)nc(-c2cnc(C3(O)CCCc4cc(C(=O)O)ccc43)s2)c1` (single isomer, unassigned) [Example 8C, 5-(5-(6-((4-(1-Fluoroethyl)pyridin-2-yl)amino)-4-methylpyridin-2-yl)thiazol-2-yl)-5-hydroxy-5,6,7,8-tetrahydronaphthalene-2-carboxylic acid] gave an IC50 of 2 nM.
